{
  "source": "PubChem BioAssay (NCI)",
  "note": "Several values for one entry are separate records, joined by “and”; a condition that tells them apart may be missing. Equal entries are not always repeated.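 In this assay, cells in 96-well plates receive the compound at five concentrations for 48 hours. Endpoints are linearly interpolated between the surrounding concentrations. Abbreviation: GI50, concentration required for 50% inhibition of growth. TGI: total growth inhibition.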",
  "data": [
    {"system": "NCI-H460 lung", "test": "growth of human tumour cells (NCI), 48 h", "units": {"TGI": "µM", "GI50": "µM"}, "values": [
      {"smiles": "C[N+](C)(C)CC1CCCc2ccccc2C1=O", "note": "(centres undefined)", "TGI": 49.4},
      {"smiles": "COc1cc(C(=O)N2CCN(C=O)C2=S)cc(OC)c1OC", "GI50": 34, "TGI": "> 100"}
    ]},
    {"system": "HOP-62 NSCLC", "test": "growth of human tumour cells (NCI), 48 h", "units": {"GI50": "µM"}, "values": [
      {"smiles": "CN(C)CCNC(=O)c1cccc2ccc(-c3ccc(O)cc3)nc12", "GI50": 1.11, "TGI": "7.2 µM and 4.47 µM"},
      {"smiles": "CSc1nc(=O)n(CCC#N)nc1SC", "TGI": "> 100 µM"},
      {"smiles": "COc1cc(Nc2ncccc2C(=O)NCc2cn(Cc3cccc(Oc4ccccc4)c3)nn2)cc(OC)c1", "GI50": 6.31, "TGI": "> 100 µM"},
      {"smiles": "COc1cc(-c2oc(=O)ccc2C#Cc2ccccn2)cc(OC)c1OC", "GI50": 2.42, "TGI": "> 100 µM"},
      {"smiles": "COc1cccc(C2CC(C)(O)Oc3cc4c(cc32)OCO4)c1O", "note": "(centres undefined)", "TGI": "79.7 µM"},
      {"smiles": "Cn1cc(C2=C(c3ccc(N)cc3)C(=O)NC2=O)c2ccccc21", "GI50": "> 25", "TGI": "> 25 µM"},
      {"smiles": "Cc1cc(Cl)cc(OCCn2cc(F)cn2)c1-c1nc(N)nc2c1CN(C(=O)NCC(C)(F)F)C2", "GI50": 0.622, "TGI": "> 100 µM"},
      {"smiles": "COc1ccc(/C=C\\[N+](=O)[O-])cc1OC", "GI50": 12, "TGI": "29.2 µM"},
      {"smiles": "CCN(CC)CCC(CNc1ccnc2cc(Cl)ccc12)c1ccc(Cl)cc1", "note": "(centres undefined)", "GI50": 1.78, "TGI": "5.9 µM"},
      {"smiles": "COc1cccc(F)c1C(=O)c1cnc(NC2CCN(S(C)(=O)=O)CC2)nc1N", "GI50": 4.64, "TGI": "23 µM"},
      {"smiles": "COC(=O)c1ccc2c(c1)nc(NC(=O)c1ccccc1)n2CCCc1ccccc1", "GI50": 5.03, "TGI": "> 100 µM"},
      {"smiles": "Cc1ccc(S(=O)(=O)Nc2ccccc2C=O)cc1", "TGI": "85 µM"},
      {"smiles": "O=C(Nc1ccc2ncccc2c1)Nc1ccc2ncccc2c1", "TGI": "> 100 µM"},
      {"smiles": "CC1(C)S[C@@H]2[C@H](NC(=O)C3(N)CCCCC3)C(=O)N2[C@H]1C(=O)O", "TGI": "> 100 µM"},
      {"smiles": "NC(=O)/C=C/C(=O)c1c(Cl)cccc1Cl", "GI50": 2.63},
      {"smiles": "CC1(C)N=C(N)N=C(N)N1c1ccc(CCCCc2ccc(Cl)cc2S(=O)(=O)F)c(Cl)c1", "GI50": 0.63, "TGI": "12.7 µM"},
      {"smiles": "O=C(Nc1ccc(Nc2ccncc2)cc1)c1ccc([N+](=O)[O-])cc1", "GI50": 13.7, "TGI": "29 µM"},
      {"smiles": "C(=NCCN1CCOCC1)=NC1CCCCC1", "TGI": "> 100 µM"},
      {"smiles": "COc1ccccc1/C=N\\N/C(N)=N\\N=C\\c1ccccc1OC", "GI50": 0.586, "TGI": "6.68 µM"},
      {"smiles": "COc1cccc(CC(C)=C(c2ccc(OCCN(C)C)cc2)c2ccc(OCCN(C)C)cc2)c1", "GI50": 2.24, "TGI": "6.92 µM"},
      {"smiles": "COC(=O)COc1ccccc1/C=C1\\N=C(c2ccccc2)N(c2cc(C(F)(F)F)ccc2Cl)C1=O", "GI50": 45, "TGI": "> 100 µM"},
      {"smiles": "C=C1C(=O)OC2CC(C)C(C(CC(C)=O)OC(C)=O)=CCC12", "note": "(centres undefined)", "TGI": "46.9 µM"},
      {"smiles": "S=C(Nc1ccc(Cl)cc1)Nc1ccc(-c2nc3ccccc3s2)cc1", "GI50": 20.1, "TGI": "41 µM"},
      {"smiles": "COC(=O)C[C@](O)(CCCC(C)(C)O)C(=O)O[C@@H]1C(OC)=C[C@]23CCCN2CCc2cc4c(cc2[C@H]13)OCO4", "GI50": 0.0363, "TGI": "0.366 µM and 0.265 µM"},
      {"smiles": "CC(=O)Nc1ccc(S(=O)(=O)N2C(=O)CCC2C(=O)Nc2ccc(Br)cc2)cc1", "note": "(centres undefined)", "GI50": 2.4, "TGI": "11.3 µM"},
      {"smiles": "CO/N=C(/C)c1cccc(Nc2cc(-n3nnc4ccccc43)nc3ccccc23)c1", "GI50": 19.6, "TGI": "53.6 µM"},
      {"smiles": "C[N+](C)(C)CC1CCCc2ccccc2C1=O", "note": "(centres undefined)", "TGI": "34.3 µM"},
      {"smiles": "COc1cc(C(=O)N2CCN(C=O)C2=S)cc(OC)c1OC", "GI50": 20, "TGI": "61.1 µM"}
    ]},
    {"system": "NCI/ADR-RES ovarian", "test": "growth of human tumour cells (NCI), 48 h", "units": {"GI50": "µM"}, "values": [
      {"smiles": "CN(C)CCNC(=O)c1cccc2ccc(-c3ccc(O)cc3)nc12", "GI50": 6.8, "TGI": "23.7 µM and 26.3 µM"},
      {"smiles": "CSc1nc(=O)n(CCC#N)nc1SC", "TGI": "> 100 µM"},
      {"smiles": "COc1cc(Nc2ncccc2C(=O)NCc2cn(Cc3cccc(Oc4ccccc4)c3)nn2)cc(OC)c1", "GI50": 3.21, "TGI": "> 100 µM"},
      {"smiles": "COc1cc(-c2oc(=O)ccc2C#Cc2ccccn2)cc(OC)c1OC", "GI50": 1.09},
      {"smiles": "COc1cccc(C2CC(C)(O)Oc3cc4c(cc32)OCO4)c1O", "note": "(centres undefined)", "TGI": "59.3 µM"},
      {"smiles": "Cn1cc(C2=C(c3ccc(N)cc3)C(=O)NC2=O)c2ccccc21", "GI50": 21.8, "TGI": "> 25 µM"}
    ]}
  ]
}
